Assay results as given in the supplement of paper PMC13380429.

Columns and labels:
Settings in all cases: 72 h
[1] = system: Caco-2; experiment: cell viability relative to DMSO; higher = less toxic
[2] = system: Calu-3; experiment: as above
[3] = system: HepG2; experiment: as above
[4] = system: U2OS; experiment: as above
[5] = system: Vero E6; experiment: as above
[6] = system: Caco-2; experiment: relative viability EC50 (midpoint between 100% and the lowest measured viability); higher = less toxic
[7] = system: Calu-3; experiment: as above
[8] = system: HepG2; experiment: as above
[9] = system: U2OS; experiment: as above
[10] = system: Vero E6; experiment: as above
[11] = system: Caco-2; experiment: drug sensitivity score (DSS) for viability; higher = more toxic; extreme values may be limits of the assay
[12] = system: Calu-3; experiment: as above
[13] = system: HepG2; experiment: as above
[14] = system: U2OS; experiment: as above
[15] = system: Vero E6; experiment: as above

Row | SMILES | cell viability ([1]; 1 nM) | cell viability ([1]; 10 nM) | cell viability ([1]; 100 nM) | cell viability ([1]; 1000 nM) | cell viability ([1]; 10000 nM) | cell viability ([2]; 1 nM) | cell viability ([2]; 10 nM) | cell viability ([2]; 100 nM) | cell viability ([2]; 1000 nM) | cell viability ([2]; 10000 nM) | cell viability ([3]; 1 nM) | cell viability ([3]; 10 nM) | cell viability ([3]; 100 nM) | cell viability ([3]; 1000 nM) | cell viability ([3]; 10000 nM) | cell viability ([4]; 1 nM) | cell viability ([4]; 10 nM) | cell viability ([4]; 100 nM) | cell viability ([4]; 1000 nM) | cell viability ([4]; 10000 nM) | cell viability ([5]; 1 nM) | cell viability ([5]; 10 nM) | cell viability ([5]; 100 nM) | cell viability ([5]; 1000 nM) | cell viability ([5]; 10000 nM) | relative viability EC50 [6] | relative viability EC50 [7] | relative viability EC50 [8] | relative viability EC50 [9] | relative viability EC50 [10] | drug sensitivity score [11] | drug sensitivity score [12] | drug sensitivity score [13] | drug sensitivity score [14] | drug sensitivity score [15]
1 | COc1ccc(COc2ccc(CC#N)cc2)cc1 [O4I1] | 94.7% | 93.9% | 96.3% | 92.9% | 92.2% | 104% | 93.3% | 103% | 89.4% | 102% | 100% | 97% | 98.6% | 95.4% | 94.7% | 102% | 106% | 96.2% | 104% | 95.4% | 100% | 99.4% | 99.1% | 95% | 87.4% | > 10 µM | > 10 µM | > 10 µM | > 10 µM | > 10 µM | 0 | 0 | 0 | 0 | 0.2
2 | O=C(Oc1ccccc1)c1ccccc1O [phenyl-salicylate] | 95.3% | 93.7% | 98.1% | 97.1% | 97.6% | 103% | 101% | 93.6% | 104% | 94.9% | 100% | 104% | 97.1% | 110% | 106% | 97.7% | 100% | 97.5% | 102% | 99.4% | 105% | 99.8% | 105% | 98.4% | 104% | > 10 µM | > 10 µM | > 10 µM | > 10 µM | > 10 µM | 0 | 0 | 0 | 0 | 0
3 | CCCCCCNC(=O)Nc1ccc(S(=O)(=O)Nc2ccc(CCNC[C@H](O)COc3ccc(O)cc3)cc2)cc1 | 102% | 82.7% | 102% | 102% | 104% | 105% | 96.8% | 93.5% | 102% | 88.3% | 95.6% | 110% | 92.1% | 103% | 107% | 106% | 96.6% | 101% | 99.9% | 103% | 92.7% | 95.8% | 91% | 96.2% | 110% | > 10 µM | > 10 µM | > 10 µM | > 10 µM | > 10 µM | 0 | 0 | 0 | 0 | 0
4 | O=C(Nc1ccccc1)c1cc([N+](=O)[O-])ccc1Cl [GW-9662] | 98% | 94.1% | 103% | 90.1% | 93.3% | 93.7% | 93.6% | 101% | 100% | 96.7% | 94.9% | 100% | 90% | 102% | 88.3% | 106% | 91.7% | 101% | 91.6% | 96.8% | 103% | 106% | 98.2% | 99.9% | 97.7% | > 10 µM | > 10 µM | > 10 µM | > 10 µM | > 10 µM | 0 | 0 | 0 | 0 | 0
5 | O=C(C[S+]([O-])C(c1ccccc1)c1ccccc1)NO (stereo not given) [adrafinil] | 93.8% | 91.1% | 91.6% | 103% | 101% | 103% | 110% | 98.4% | 107% | 108% | 97.6% | 88.7% | 97.2% | 96.1% | 102% | 97.9% | 102% | 97.9% | 107% | 99.8% | 93.5% | 85.5% | 93.8% | 93% | 107% | > 10 µM | > 10 µM | > 10 µM | > 10 µM | > 10 µM | 0 | 0 | 0 | 0 | 0
6 | Cc1cc(NC(=O)NCCN2CCC(O)(Cc3ccccc3)CC2)c2ccccc2n1 [palosuran] | 99.5% | 93.1% | 88.3% | 99.4% | 104% | 95.3% | 91.9% | 103% | 100% | 89.4% | 102% | 110% | 96.3% | 99.7% | 92.5% | 99.3% | 94.9% | 98% | 96.5% | 103% | 104% | 106% | 99.4% | 104% | 102% | > 10 µM | > 10 µM | > 10 µM | > 10 µM | > 10 µM | 0 | 0 | 0 | 0 | 0
7 | CC(=O)Nc1cccc(O)c1 [metacetamol] | 104% | 101% | 89.1% | 93.8% | 98.8% | 98.1% | 101% | 99.9% | 99.8% | 96.9% | 103% | 91.5% | 93.7% | 92.1% | 83.8% | 103% | 101% | 99.7% | 95.5% | 101% | 102% | 94.1% | 96% | 97.9% | 102% | > 10 µM | > 10 µM | > 10 µM | > 10 µM | > 10 µM | 0 | 0 | 0.6 | 0 | 0
8 | O=C1Cc2cc(CCN3CCN(c4nsc5ccccc45)CC3)c(Cl)cc2N1 [ziprasidone] | 100% | 90.5% | 98.3% | 102% | 75.6% | 103% | 97.8% | 91.9% | 97.4% | 108% | 105% | 120% | 102% | 103% | 83.8% | 101% | 99.4% | 100% | 98.9% | 96.4% | 106% | 105% | 95.8% | 104% | 98.4% | > 10 µM | > 10 µM | > 10 µM | > 10 µM | > 10 µM | 0.8 | 0 | 0.2 | 0 | 0
9 | COc1cc2nc(N3CCN(C(=O)C4CCCO4)CC3)nc(N)c2cc1OC (stereo not given) [terazosin] | 104% | 95.3% | 95.4% | 92.5% | 95.3% | 96.1% | 106% | 105% | 99.9% | 96.3% | 107% | 96.7% | 101% | 103% | 112% | 97.8% | 102% | 96% | 101% | 103% | 96.4% | 95.4% | 97% | 92.9% | 104% | > 10 µM | > 10 µM | > 10 µM | > 10 µM | > 10 µM | 0 | 0 | 0 | 0 | 0
10 | C[C@@H]([C@H](O)c1ccc(O)cc1)N1CCC(Cc2ccccc2)CC1 (racemic) [ifenprodil] | 96.8% | 101% | 96.1% | 98% | 89.8% | 99.4% | 96.5% | 92% | 91.8% | 84.1% | 103% | 99.5% | 104% | 92.8% | 88.2% | 103% | 101% | 99.9% | 102% | 98.5% | 101% | 103% | 102% | 98.8% | 97.6% | > 10 µM | > 10 µM | > 10 µM | > 10 µM | > 10 µM | 0 | 0.6 | 0.3 | 0 | 0
11 | O=C(O)CC[C@H]1CC[C@@](c2cc(F)ccc2F)(S(=O)(=O)c2ccc(Cl)cc2)CC1 [MK-0752] | 96.5% | 106% | 98.2% | 99.2% | 99.5% | 96.3% | 96.3% | 100% | 101% | 97.8% | 100% | 96.1% | 98.9% | 92.6% | 108% | 94.9% | 105% | 96% | 102% | 97.9% | 96% | 99.7% | 94.5% | 95.5% | 103% | > 10 µM | > 10 µM | > 10 µM | > 10 µM | > 10 µM | 0 | 0 | 0 | 0 | 0
12 | CCC(=O)NO [ZAMI-633] | 100% | 96.7% | 93.4% | 96.8% | 127% | 101% | 102% | 94.2% | 93.6% | 97.2% | 110% | 97% | 104% | 90.6% | 85.1% | 97.5% | 97.9% | 92.8% | 93.3% | 105% | 110% | 95% | 109% | 97.1% | 89% | > 10 µM | > 10 µM | > 10 µM | > 10 µM | > 10 µM | 0 | 0 | 0.9 | 0 | 0.1
13 | CCOc1cc(OCC)c(C(=O)CCC(=O)O)cc1OCC [trepibutone] | 98.6% | 98.4% | 102% | 101% | 96.7% | 108% | 105% | 107% | 102% | 99.8% | 100% | 96.9% | 104% | 98.1% | 99.9% | 101% | 94.3% | 94.5% | 100% | 96.6% | 94.5% | 105% | 99.8% | 97.3% | 92.7% | > 10 µM | > 10 µM | > 10 µM | > 10 µM | > 10 µM | 0 | 0 | 0 | 0 | 0
14 | Cc1onc(-c2c(Cl)cccc2Cl)c1C(=O)N[C@@H]1C(=O)N2[C@@H]1SC(C)(C)[C@@H]2C(=O)O [dicloxacillin] | 100% | 99.6% | 93.3% | 98.2% | 101% | 98.2% | 84.7% | 96% | 97.6% | 98.9% | 97.5% | 98.1% | 106% | 100% | 110% | 95.6% | 99.9% | 93.7% | 97.9% | 94.9% | 99.4% | 97.7% | 102% | 94.1% | 96.3% | > 10 µM | > 10 µM | > 10 µM | > 10 µM | > 10 µM | 0 | 0 | 0 | 0 | 0
